This note sets out measurements from US20240190890A1, “MK2 INHIBITORS AND USES THEREOF” (Bristol-Myers Squibb Company, priority 2022, published 2024).

The target of this assay is p38a activated, mitogen-activated protein kinase-activated protein kinase 2 (MAPKAP-K2 or MK2) enzyme (Homo sapiens (Human), UniProt P49137). Description: MK2 Omnia continuous-read kinase assay for compound potency. It is filed as biochemical. Particulars: [MK-2]=0.4 nM, [ATP]=10 μM, [ST3-Sox]=10 μM; room temperature. The method in brief: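 p38a-activated MK2 (0.4 nM) with 10 μM ATP (apparent Km) and 10 μM S/T3-Sox peptide in Tris pH 7.5 buffer with MgCl2, EGTA and DTT. Fluorescence (ex360/em485) read continuously for 120 min at room temperature. IC50 from initial linear slopes; apparent kinact/KI from kobs of exponential progress-curve fits.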
Sequence of p38a activated, mitogen-activated protein kinase-activated protein kinase 2 (MAPKAP-K2 or MK2) enzyme (P49137 whole entry): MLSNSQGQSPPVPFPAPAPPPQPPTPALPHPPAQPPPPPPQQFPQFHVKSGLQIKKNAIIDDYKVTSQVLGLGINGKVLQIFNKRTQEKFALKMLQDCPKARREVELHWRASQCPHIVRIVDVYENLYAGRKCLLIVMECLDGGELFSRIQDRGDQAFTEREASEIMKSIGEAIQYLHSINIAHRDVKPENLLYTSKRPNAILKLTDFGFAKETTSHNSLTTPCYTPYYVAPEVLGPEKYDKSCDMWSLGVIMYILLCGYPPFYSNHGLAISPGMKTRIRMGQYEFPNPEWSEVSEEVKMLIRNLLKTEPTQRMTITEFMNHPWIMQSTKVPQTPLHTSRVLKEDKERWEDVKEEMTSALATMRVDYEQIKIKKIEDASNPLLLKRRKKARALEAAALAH

The term IC50 denotes the concentration needed to halve the response being measured. As to `C#Cc1cc(-c2ccc3c(ccc4sc5c(c43)NC[C@@H](C)NC5=O)n2)cnn1` [Example I-51, (R)-3-(6-ethynylpyridazin-4-yl)-10-methyl-9,10,11,12-tetrahydro-8H-[1,4]diazepino[5′,6′:4,5]thieno[3,2-f]quinolin-8-one], the concentration for half-maximal inhibition (IC50) came to 0.003 µM.

Turning to `C=Cc1cc(N2CCN(C)CC2)nc(-c2ccc3c(ccc4sc5c(c43)NC[C@@H](C)NC5=O)n2)n1` [Example I-62, (R)-10-methyl-3-(4-(4-methylpiperazin-1-yl)-6-vinylpyrimidin-2-yl)-9,10,11,12-tetrahydro-8H-[1,4]diazepino[5′,6′:4,5]thieno[3,2-f]quinolin-8-one], the IC50 is 0.027 µM. `C=Cc1cc(-c2ccc3c(ccc4sc5c(c43)NC[C@@H](C)NC5=O)n2)c(OC)cn1` [Example I-256, (R)-3-(5-methoxy-2-vinylpyridin-4-yl)-10-methyl-9,10,11,12-tetrahydro-8H-[1,4]diazepino[5′,6′:4,5]thieno[3,2-f]quinolin-8-one]: the IC50 worked out at 0.02 µM. As for `C=C(F)c1cccc(-c2ccc3c(ccc4sc5c(c43)NC[C@@H](C)NC5=O)n2)n1` [Example I-90, (R)-3-(6-(1-fluorovinyl)pyridin-2-yl)-10-methyl-9,10,11,12-tetrahydro-8H-[1,4]diazepino[5′,6′:4,5]thieno[3,2-f]quinolin-8-one], the half-maximal inhibitory concentration (IC50) is 0.46 µM. In the case of `C=Cc1nc(C(=O)OCC)c(-c2ccc3c(ccc4sc5c(c43)NC[C@@H](C)NC5=O)n2)s1` [Example I-234, ethyl (R)-5-(10-methyl-8-oxo-9,10,11,12-tetrahydro-8H-[1,4]diazepino[5′,6′:4,5]thieno[3,2-f]quinolin-3-yl)-2-vinylthiazole-4-carboxylate], the IC50 stood at 0.018 µM. Take `C=C(c1cncc(-c2ccc3c(ccc4sc5c(c43)NC[C@@H](C)NC5=O)n2)n1)C(F)(F)F` [Example I-225, (R)-10-methyl-3-(6-(3,3,3-trifluoroprop-1-en-2-yl)pyrazin-2-yl)-9,10,11,12-tetrahydro-8H-[1,4]diazepino[5′,6′:4,5]thieno[3,2-f]quinolin-8-one]: the IC50 turned out to be 0.019 µM.
